In data set [1] the test system is intestinal porcine epithelial cell line (IPEC-J2).
A further data set relates to HepG2 cells. Conditions: up until a concentration of 100 µM; cited from earlier work.
The next data set is described as follows: in vitro. The conditions noted are these: pig.
Data set [2] relates to intestinal porcine epithelial cell line (IPEC-J2). Description: cells. The conditions noted are these: Sus scrofa, IPEC-J2, 48 h.
Another data set concerns rats. Also on record: method as in PMID 9872769. Conditions: at levels of 0.05 and 0.1%; cited from earlier work.
The next data set relates to HT29 cells. More on the design: method as in PMID 29248571. Conditions: after 48 h; cited from earlier work.
In another data set the test system is HCEC-1CT cells. Also on record: method as in PMID 29248571. The conditions noted are these: after 48 h; cited from earlier work.
The test system of data set [3] is three different cancer cell lines. Also on record: method as in PMID 1172201. The conditions noted are these: cited from earlier work.
For data set [4] the following is noted: pigs; cited from earlier work.
Details of data set [5]: method as in PMID 24239892, PMID 22008903. The conditions noted are these: cited from earlier work.
Another data set has as its system THP-1 monocytes. More on the design: method as in doi:10.3920/WMJ2014.1861. Conditions: cited from earlier work.
A further data set deals with Caco-2 cells. Also on record: method as in doi:10.3920/WMJ2014.1861. Conditions: 780 µM, 48 h of incubation; cited from earlier work.
Data set [6] relates to glucuronidation of DON in human liver microsomes. More on the design: method as in PMID 31049613, PMID 29465119. The conditions noted are these: cited from earlier work.

Where two headings read alike, the source gives them in different places.

Take `O=C(O)CC[N+](=O)[O-]` [3-nitropropionic acid]: the “Negative effects on IPEC-J2 in the tested concentration range” value (“Negative effects on IPEC-J2” for short) in data set [1] is on record as “None”.
One may read the viability as the share of living cells, or the viability signal relative to a control. The term IC50 denotes the point on the concentration scale where inhibition reaches its midpoint. Turning to `Cc1cc(O)cc2oc(=O)c3c(O)cc(O)cc3c12` [Alternariol], in [1], the “Cytotoxic effect on IPEC-J2 (in words)” value is listed as “slight decrease in viability” and the “Relative IC50 value” was 5232 µg/kg. Besides, the “Cell viability of HepG2 cells” value in the data set on HepG2 cells is “did not decrease in a concentration-dependent manner”. In addition, in “in vitro”, the viability is about 50% and the viability at 20 µM is 76.3%. Besides, the IC50 in data set [2] (read-out: Relative IC50 value) was determined as 20.3 µM.
On to `CCC(=O)CCCCC[C@@H]1NC(=O)[C@H]2CCCCN2C(=O)[C@H]([C@@H](C)CC)NC(=O)[C@H](Cc2cn(OC)c3ccccc23)NC1=O` [Apicidin], for which the “Toxic effects in rats” value in the data set on rats is recorded as “leading to death”. Besides, in data set [1], the “Absolute IC50 value” is given as 324 µg/kg and the “Relative IC50 value” was 306 µg/kg. Besides, the IC50 in data set [2] (read-out: Absolute IC50 value) was 0.52 µM. Also, the IC50 in data set [2] (read-out: Relative IC50 value) was 0.49 µM.
In the case of `COC1=C(C2=C(OC)C(=O)c3cc4oc(C)cc(=O)c4c(O)c3C2=O)C(=O)c2c(cc3oc(C)cc(=O)c3c2O)C1=O` [Aurofusarin], the “Absolute IC50 value” in [1] was determined as 6766 µg/kg. In addition, the “Relative IC50 value” in [1] came out at 5329 µg/kg. For the same compound, the IC50 in [1] (read-out: Absolute IC50 value) is 11.9 µM; in data set [1] (read-out: Relative IC50 value) it was 9.34 µM. Also, the “Concentration at which a significant decrease in viability starts” value in the data set on HT29 cells and with HCEC-1CT cells was 5 µM in each case.
For the compound `COC1=CC(=O)c2c(c(O)c3oc4cc(OC)cc(C)c4c(=O)c3c2O)C1=O` [Bikaverin], the “ED50 (cytotoxicity)” value in data set [3] is 0.5 to 4.2 µg/mL. The “ED50 (cytotoxicity)” value in data set [3] (µg/mL values expressed in µM) is 1.31 to 10.99 µM. In addition, in data set [1], the “Absolute IC50 value” is 711 µg/kg, the “Relative IC50 value” came to 287 µg/kg and the “Viability after applying higher concentrations” value was “did not further decrease below 50%”. Also, the IC50 in [2] (read-out: Absolute IC50 value) is 1.86 µM. For the same compound, the IC50 in data set [2] (read-out: Relative IC50 value) turned out to be 0.75 µM.
For `CC1=C[C@H]2O[C@@H]3[C@H](O)C[C@](C)([C@@]2(CO)[C@H](O)C1=O)[C@]31CO1` [Deoxynivalenol, reference compound], in data set [1], the “Absolute IC50 value” is listed as 756 µg/kg. Moreover, in data set [1], the “Relative IC50 value” stood at 557 µg/kg. For the same compound, the IC50 is 2.55 µM in data set [1] (read-out: Absolute IC50 value) and 1.88 µM in data set [1] (read-out: Relative IC50 value). Further, in [4], the “Bioavailability after oral administration” value is 98.6% ± 23.6%.
Take `Cc1cc(O)c2c(c1)C(=O)c1cc(O)cc(O)c1C2=O` [Emodin]: in data set [1], the “Absolute IC50 value” is given as 5056 µg/kg, the “Relative IC50 value” stood at 3537 µg/kg, the “Viability after applying higher concentrations” value is given as “did not further decrease below 50%” and the “Viability at concentrations >50 µM” value is given as “did not further decrease”. For the same compound, in data set [2] (read-out: Absolute IC50 value), the concentration for half-maximal inhibition (IC50) is 18.7 µM. In addition, the IC50 in data set [2] (read-out: Relative IC50 value) came out at 13.1 µM.
In the case of `CC[C@H](C)[C@H]1C(=O)O[C@H](C(C)C)C(=O)N(C)[C@@H](C(C)C)C(=O)O[C@H](C(C)C)C(=O)N(C)[C@@H](C(C)C)C(=O)O[C@H](C(C)C)C(=O)N1C` [Enniatin B1], the Oral bioavailability entry in [5] is “high oral bioavailability”. For the same compound, in [1], the “Absolute IC50 value” was determined as 2400 µg/kg and the “Relative IC50 value” is given as 1759 µg/kg. Further, the IC50 in data set [2] (read-out: Absolute IC50 value) came out at 3.67 µM. Besides, in data set [2] (read-out: Relative IC50 value), the IC50 was 2.69 µM.
In the case of `CC(C)[C@H]1C(=O)O[C@H](C(C)C)C(=O)N(C)[C@@H](C(C)C)C(=O)O[C@H](C(C)C)C(=O)N(C)[C@@H](C(C)C)C(=O)O[C@H](C(C)C)C(=O)N1C` [Enniatin B], in [1], the “Absolute IC50 value” was determined as 2079 µg/kg, the “Relative IC50 value” is 2233 µg/kg and the “Viability after applying higher concentrations” value is recorded as “did not further decrease below 50%”. Besides, the IC50 in data set [2] (read-out: Absolute IC50 value) was determined as 3.25 µM. The IC50 in data set [2] (read-out: Relative IC50 value) amounted to 3.49 µM.
Regarding `C/C=C/[C@@H]1C=C[C@@H]2C[C@H](C)CC[C@H]2[C@]1(C)/C(O)=C1/C(=O)[C@H](CO)N(C)C1=O` [Equisetin], in data set [1], the “Cytotoxic effect on IPEC-J2 (in words)” value is reported as “slight decrease in viability” and the “Relative IC50 value” was found to be 4120 µg/kg. Besides, the Cell viability in data set [1] (20 µM) is 64.0% (±7.6%). In addition, in data set [1] (read-out: Relative IC50 value), the IC50 is 11 µM.
Regarding `CN1C(=O)[C@]23CC4=CC=C[C@H](O)[C@H]4N2C(=O)[C@@]1(CO)SS3` [Gliotoxin], in data set [1], the “Absolute IC50 value” stood at 209 µg/kg and the “Relative IC50 value” worked out at 206 µg/kg. Moreover, the IC50 in data set [2] (read-out: Absolute IC50 value) stood at 0.64 µM. Further, in [2] (read-out: Relative IC50 value), the IC50 was 0.63 µM.
Take `COc1c(C)c2c(c(O)c1C/C=C(\C)CCC(=O)O)C(=O)OC2` [Mycophenolic Acid, Mycophenolic acid]: in data set [1], the Abrupt decreased viability is on record as 26.1% ± 12.1%, the “Cytotoxic effect on IPEC-J2 (in words)” value was “slight decrease in viability”, the “Relative IC50 value” worked out at 170 µg/kg and the “Viability at concentrations from 2.5 to 150 µM” value is given as “no further loss in viability”. Moreover, the IC50 in [1] (read-out: Relative IC50 value) came out at 0.53 µM. Further, the “Effect in THP-1 monocytes” value with THP-1 monocytes is on record as “no effect”. In “in vitro”, this compound displayed a viability of at least 66%. Besides, the half-maximal inhibitory concentration (IC50) in data set [2] (read-out: Relative IC50 value) turned out to be 0.543 µM. In addition, in the data set with Caco-2 cells, the “Decrease of mitochondrial activity” value is given as 45%.
Take `O=C1C=C2C(=CCOC2O)O1` (stereo not shown) [Patulin]: in data set [1], the “Absolute IC50 value” was 495 µg/kg and the “Relative IC50 value” was determined as 490 µg/kg. In addition, the 50% inhibitory concentration (IC50) in data set [2] (read-out: Absolute IC50 value) amounted to 3.21 µM. Also, in [2] (read-out: Relative IC50 value), the IC50 turned out to be 3.18 µM.
For the compound `COc1cc(O)c2c(O)c3c(=O)cc(C)oc3cc2c1` [Rubrofusarin], in data set [1], the “Cytotoxic effect on IPEC-J2 (in words)” value is reported as “slight decrease in viability” and the “Relative IC50 value” was 5865 µg/kg. In “in vitro”, this compound showed a viability at 50 µM of 64 ± 8.7%. Besides, in data set [2] (read-out: Relative IC50 value), the IC50 was 21.5 µM.
For the compound `COc1cc(O)c2c(=O)oc3cc(O)cc(C)c3c2c1` [alternariol monomethyl ether], the “Negative effects on IPEC-J2” value in data set [1] is listed as “None”.
The same measure, in the same setting: with `O=C1N[C@@H](Cc2c[nH]c3ccccc23)C(=O)N2CCC[C@@H]12` [brevianamid F] the entry was “None”.
On to `CC1(C)CCC[C@]2(C)[C@@H]3[C@H]1[C@@H](O)[C@@]2(C)C[C@H]3O` [culmorin], for which, in [1], the “Cytotoxic effect on IPEC-J2 (in words)” value is recorded as “no cytotoxic effect” and the “Negative effects on IPEC-J2” value was “None”. The “Effect on glucuronidation of DON” value in [6] was “able to inhibit the glucuronidation of DON”.
For the compound `O=C1N[C@@H](Cc2ccc(O)cc2)C(=O)N2CCC[C@@H]12` [cyclo-(L-Pro-L-Tyr)], in data set [1], the “Cytotoxic effect on IPEC-J2 (in words)” value is given as “non-cytotoxic” and the “Negative effects on IPEC-J2” value is reported as “None”.
As for `CC(C)[C@@H]1NC(=O)[C@@H]2CCCN2C1=O` [cyclo-(L-Pro-L-Val)], the “Negative effects on IPEC-J2” value in data set [1] is “None”.
With `CCCCc1ccc(C(=O)O)nc1` [fusaric acid], the “Negative effects on IPEC-J2” value in [1] is “None”.
Still for that read-out and setting: with `O=c1cc(CO)occ1O` [kojic acid] the entry was “None”.
The same measure, in the same setting: as for `O=c1cc(O)c1=O` [moniliformin], the entry is “None”; as for `C=CC(C)(C)[C@@]12C[C@H]3C(=O)N/C(=C/c4c[nH]cn4)C(=O)N3[C@@H]1Nc1ccccc12` [roquefortine C], “None”; as for `CC(C)C[C@@H]1NC(=O)[C@H](C)N(C)C(=O)CNC(=O)/C(=C/c2ccccc2)N(C)C1=O` [tentoxin], “None”.
Regarding `OCCc1c[nH]c2ccccc12` [tryptophol], the “Negative effects on IPEC-J2” value in data set [1] is on record as “None”.
For Beauvericin, the “Absolute IC50 value” in data set [1] was determined as 1905 µg/kg. In addition, in data set [1], the “Relative IC50 value” worked out at 1756 µg/kg. In addition, the IC50 in [1] (read-out: Absolute IC50 value) stood at 2.43 µM; in data set [1] (read-out: Relative IC50 value), 2.24 µM.
Enniatin A: in data set [1], the “Absolute IC50 value” was determined as 2319 µg/kg and the “Relative IC50 value” is reported as 1964 µg/kg. The IC50 in data set [1] (read-out: Absolute IC50 value) turned out to be 3.4 µM. In addition, the IC50 in data set [1] (read-out: Relative IC50 value) is 2.88 µM.
For Enniatin A1, in data set [1], the “Absolute IC50 value” is on record as 2772 µg/kg and the “Relative IC50 value” is given as 2151 µg/kg. For the same compound, the IC50 in data set [1] (read-out: Absolute IC50 value) was determined as 4.15 µM. Moreover, in [1] (read-out: Relative IC50 value), the IC50 amounted to 3.22 µM.

Source of the values: publication PMC6784148 (Toxins, 2019).
